Assays:
Test in all cases: relative viability (nuclei count vs DMSO), 5 days (fraction); higher = more cells survive
A-427 = test system: A-427
In short: (§1)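 Relative viability is defined as nuclei in treated wells over nuclei in vehicle wells. Duplicate plates were run and medians reported. Lung cancer cell lines in 1536-well plates were dosed by pin tool one day after seeding, with one drug or with a fixed anchor-drug dose plus five library-drug doses (not always all listed) in √10 steps, and nuclei were counted after 5 days.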

H3255 = test system: H3255
In short: as §1

HARA = test system: HARA
In short: as §1

HCC-366 = test system: HCC-366
In short: as §1

HCC-44 = test system: HCC-44
In short: as §1

LCLC-97TM1 = test system: LCLC-97TM1
In short: as §1

LXF-289 = test system: LXF-289
In short: as §1

NCI-H1395 = test system: NCI-H1395
In short: as §1

NCI-H1755 = test system: NCI-H1755
In short: as §1

NCI-H1915 = test system: NCI-H1915
In short: as §1

NCI-H1975 = test system: NCI-H1975
In short: as §1

NCI-H1993 = test system: NCI-H1993
In short: as §1

NCI-H2170 = test system: NCI-H2170
In short: as §1

NCI-H2228 = test system: NCI-H2228
In short: as §1

NCI-H2347 = test system: NCI-H2347
In short: as §1

NCI-H2405 = test system: NCI-H2405
In short: as §1

NCI-H3122 = test system: NCI-H3122
In short: as §1

NCI-H441 = test system: NCI-H441
In short: as §1

NCI-H520 = test system: NCI-H520
In short: as §1

NCI-H838 = test system: NCI-H838
In short: as §1

PC-14 = test system: PC-14
In short: as §1

RERF-LC-KJ = test system: RERF-LC-KJ
In short: as §1

SK-MES-1 = test system: SK-MES-1
In short: as §1

`C=C1C(=O)O[C@@H](CCCCCCCC)[C@@H]1C(=O)O` [C-75] + O=C(CCCCCCC(=O)Nc1ccccc1)NO [Vorinostat] (partner 1 µM) showed a relative viability (A-427; first compound 0.08 µM) of 0.851, a relative viability (A-427; first compound 0.253 µM) of 0.822 and a relative viability (A-427; first compound 0.8 µM) of 0.615. It also gave a relative viability (A-427; first compound 2.53 µM) of 0.755, a relative viability (A-427; first compound 8 µM) of 0.852 and a relative viability (H3255; first compound 0.08 µM) of 0.846. For the same compound, the relative viability (H3255; first compound 0.253 µM) was 0.621, the relative viability (H3255; first compound 0.8 µM) was 0.79 and the relative viability (H3255; first compound 2.53 µM) was 0.627. For the same compound, the relative viability (H3255; first compound 8 µM) was 0.732, the relative viability (HARA; first compound 0.08 µM) was 0.598 and the relative viability (HARA; first compound 0.253 µM) was 0.258. For the same compound, the relative viability (HARA; first compound 0.8 µM) was 0.415, the relative viability (HARA; first compound 2.53 µM) was 0.537 and the relative viability (HARA; first compound 8 µM) was 0.438. For the same compound, the relative viability (HCC-366; first compound 0.08 µM) was 0.409, the relative viability (HCC-366; first compound 0.253 µM) was 0.399 and the relative viability (HCC-366; first compound 0.8 µM) was 0.256. The relative viability (HCC-366; first compound 2.53 µM) was 0.269, the relative viability (HCC-366; first compound 8 µM) was 0.301 and the relative viability (HCC-44; first compound 0.08 µM) was 1.1. It also gave a relative viability (HCC-44; first compound 0.253 µM) of 0.994, a relative viability (HCC-44; first compound 0.8 µM) of 1.07 and a relative viability (HCC-44; first compound 2.53 µM) of 1.13. The relative viability (HCC-44; first compound 8 µM) was 1.07, the relative viability (LCLC-97TM1; first compound 0.08 µM) was 0.864 and the relative viability (LCLC-97TM1; first compound 0.253 µM) was 0.817. The relative viability (LCLC-97TM1; first compound 0.8 µM) was 0.49, the relative viability (LCLC-97TM1; first compound 2.53 µM) was 0.413 and the relative viability (LCLC-97TM1; first compound 8 µM) was 0.455. It also gave a relative viability (LXF-289; first compound 0.08 µM) of 0.716, a relative viability (LXF-289; first compound 0.253 µM) of 0.927 and a relative viability (LXF-289; first compound 0.8 µM) of 0.742. For the same compound, the relative viability (LXF-289; first compound 2.53 µM) was 0.781, the relative viability (LXF-289; first compound 8 µM) was 0.749 and the relative viability (NCI-H1395; first compound 0.08 µM) was 0.649. For the same compound, the relative viability (NCI-H1395; first compound 0.253 µM) was 0.768, the relative viability (NCI-H1395; first compound 2.53 µM) was 0.634 and the relative viability (NCI-H1395; first compound 8 µM) was 0.711. The relative viability (NCI-H1755; first compound 0.08 µM) was 0.732, the relative viability (NCI-H1755; first compound 0.253 µM) was 0.868 and the relative viability (NCI-H1755; first compound 0.8 µM) was 0.692. For the same compound, the relative viability (NCI-H1755; first compound 2.53 µM) was 0.774, the relative viability (NCI-H1755; first compound 8 µM) was 0.732 and the relative viability (NCI-H1915; first compound 0.08 µM) was 0.506. For the same compound, the relative viability (NCI-H1915; first compound 0.253 µM) was 0.548, the relative viability (NCI-H1915; first compound 0.8 µM) was 0.526 and the relative viability (NCI-H1915; first compound 2.53 µM) was 0.475. It also gave a relative viability (NCI-H1915; first compound 8 µM) of 0.536, a relative viability (NCI-H1975; first compound 0.08 µM) of 0.757 and a relative viability (NCI-H1975; first compound 0.253 µM) of 0.733. The relative viability (NCI-H1975; first compound 0.8 µM) was 0.761, the relative viability (NCI-H1975; first compound 2.53 µM) was 0.718 and the relative viability (NCI-H1975; first compound 8 µM) was 0.742. For the same compound, the relative viability (NCI-H1993; first compound 0.08 µM) was 0.719, the relative viability (NCI-H1993; first compound 0.253 µM) was 0.842 and the relative viability (NCI-H1993; first compound 0.8 µM) was 0.616. It also gave a relative viability (NCI-H1993; first compound 2.53 µM) of 0.715, a relative viability (NCI-H1993; first compound 8 µM) of 0.657 and a relative viability (NCI-H2170; first compound 0.08 µM) of 0.803. The relative viability (NCI-H2170; first compound 0.253 µM) was 0.961, the relative viability (NCI-H2170; first compound 0.8 µM) was 0.714 and the relative viability (NCI-H2170; first compound 2.53 µM) was 0.697. It also gave a relative viability (NCI-H2170; first compound 8 µM) of 0.808, a relative viability (NCI-H2228; first compound 0.08 µM) of 0.617 and a relative viability (NCI-H2228; first compound 0.253 µM) of 0.681. For the same compound, the relative viability (NCI-H2228; first compound 0.8 µM) was 0.661, the relative viability (NCI-H2228; first compound 2.53 µM) was 0.67 and the relative viability (NCI-H2228; first compound 8 µM) was 0.562. The relative viability (NCI-H2347; first compound 0.08 µM) was 0.567, the relative viability (NCI-H2347; first compound 0.253 µM) was 0.842 and the relative viability (NCI-H2347; first compound 0.8 µM) was 0.614. For the same compound, the relative viability (NCI-H2347; first compound 2.53 µM) was 0.535, the relative viability (NCI-H2347; first compound 8 µM) was 0.615 and the relative viability (NCI-H2405; first compound 0.08 µM) was 1. It also gave a relative viability (NCI-H2405; first compound 0.253 µM) of 0.831, a relative viability (NCI-H2405; first compound 0.8 µM) of 0.313 and a relative viability (NCI-H2405; first compound 2.53 µM) of 0.708. The relative viability (NCI-H2405; first compound 8 µM) was 0.891, the relative viability (NCI-H3122; first compound 0.08 µM) was 1.02 and the relative viability (NCI-H3122; first compound 0.253 µM) was 1.6. The relative viability (NCI-H3122; first compound 0.8 µM) was 1.01, the relative viability (NCI-H3122; first compound 2.53 µM) was 0.578 and the relative viability (NCI-H3122; first compound 8 µM) was 0.989. The relative viability (NCI-H441; first compound 0.08 µM) was 0.82, the relative viability (NCI-H441; first compound 0.253 µM) was 0.885 and the relative viability (NCI-H441; first compound 0.8 µM) was 0.764. For the same compound, the relative viability (NCI-H441; first compound 8 µM) was 0.568, the relative viability (NCI-H520; first compound 0.08 µM) was 0.647 and the relative viability (NCI-H520; first compound 0.253 µM) was 0.716. It also gave a relative viability (NCI-H520; first compound 0.8 µM) of 0.637, a relative viability (NCI-H520; first compound 2.53 µM) of 0.577 and a relative viability (NCI-H520; first compound 8 µM) of 0.592. For the same compound, the relative viability (NCI-H838; first compound 0.08 µM) was 0.761, the relative viability (NCI-H838; first compound 0.253 µM) was 0.669 and the relative viability (NCI-H838; first compound 0.8 µM) was 0.726. For the same compound, the relative viability (NCI-H838; first compound 2.53 µM) was 0.648, the relative viability (NCI-H838; first compound 8 µM) was 0.663 and the relative viability (PC-14; first compound 0.08 µM) was 0.721. For the same compound, the relative viability (PC-14; first compound 0.253 µM) was 0.741, the relative viability (PC-14; first compound 0.8 µM) was 0.63 and the relative viability (PC-14; first compound 2.53 µM) was 0.61. It also gave a relative viability (PC-14; first compound 8 µM) of 0.717, a relative viability (RERF-LC-KJ; first compound 0.08 µM) of 0.713 and a relative viability (RERF-LC-KJ; first compound 0.253 µM) of 0.801. The relative viability (RERF-LC-KJ; first compound 0.8 µM) was 0.687, the relative viability (RERF-LC-KJ; first compound 2.53 µM) was 0.69 and the relative viability (RERF-LC-KJ; first compound 8 µM) was 0.71. The relative viability (SK-MES-1; first compound 0.08 µM) was 1.08, the relative viability (SK-MES-1; first compound 0.253 µM) was 1.12 and the relative viability (SK-MES-1; first compound 0.8 µM) was 1.06. For the same compound, the relative viability (SK-MES-1; first compound 2.53 µM) was 1.04 and the relative viability (SK-MES-1; first compound 8 µM) was 1.1.
